Data on two compounds can be found in US11878075B2, “Sustained release formulations of dysoxylum binefacterum” (COUNCIL OF SCIENTIFIC AND INDUSTRIAL RESEARCH, priority 2018, dated 2024).

Data set [1] in a line: pH dependent stability of rohitukine. Type of data set: physicochemical. Conditions: pH 1.2 buffer, pH 4.0 buffer, phosphate buffer pH 6.8, PBS pH 7.4, SGF (pH 1.2), SIF (pH 6.8) and plasma up to 24 hrs. How it is done:
The stability of rohitukine was performed in pH 1.2 buffer, pH 4.0 buffer, phosphate buffer pH 6.8, phosphate buffered saline pH 7.4, SGF (pH 1.2), SIF (pH 6.8) and plasma up to 24 hrs. The % of rohitukine hydrolyzed was determined by HPLC analysis. The HPLC analysis was carried out using the method as described in example 1.

The subject of the next data set is IL-6. Nature of the data set: Collagen induced arthritis model, serum IL-6. Format: in vivo, DBA/1J mice. The note with it: oral administration in arthritic mice, day 34 to day 48. As for the experimental part:
(§1) Six weeks old DBA/1J mice (procured from Jackson Laboratories, USA) were used in this study. On the day of the immunization (day 1), required amount of Chicken collagen II (CII), 2 mg/ml (Chondrex Inc, USA) stock solution was thawed at 4° C. into a small (20 ml) glass bottle. Equal volume of CII solution was added to the complete Freund's adjuvant (CFA), 1 mg/ml, (Sigma aldrich, USA) in 1:1 ratio and homogenized at 4° C. to produce a homogenous, stiff, white creamy emulsion for immunization. Mice were weighed and anesthetized with isoflurane. 150 μl of CII/CFA (1:1) emulsion was injected intradermally at two different sites into the mice lower back (previously shaven) on day 1. Mice were given the booster on day-21 in a similar manner as day 1 except that CII was emulsified in incomplete Freund's adjuvant. Mice were given booster of LPS from E. coli (50 μg/mouse; Sigma Aldrich, USA) on day 28. Dosing of the test samples in DBA/1J mouse CIA model was initiated after development of clinical symptoms. Animals were randomized into different treatment groups based on clinical scores on day 33. Treatment continued from day 34 to day 48. Serum IL-6, TNF-α estimation was done using ELISA kit from R & D Systems, USA. All values are expressed as Mean±SEM. * p<0.05 as compared to vehicle treatment, one way ANOVA followed by Dunnett's multiple comparison test.

Data set [2] deals with TNF-alpha production in THP-1 cells. Kind of data set: In-vitro cytokine inhibition in LPS-stimulated THP-1 cells (TNF-α ELISA). The note with it: THP-1 cells, 1.56, 3.12, and 6.25 μg/mL. Type of data set: cell-based, human. As for the experimental part: For the in vitro analysis of pro-inflammatory cytokine (TNF-α), human leukemia THP-1 cells were seeded in a 24-well plate at a density of 4×10^5 cells/ml of RPMI medium per well. THP-1 cells were then treated with PMA (20 ng/ml) for differentiation into macrophages for 18 h followed by a rest period of 48 h. Cells were further co-treated with test samples and 1 μg/ml of lipopolysaccharide (LPS) in a serum-free medium. Culture supernatant was harvested after 24 h for analysis of TNF-α by using OptEIA ELISA Kits from BD Biosciences. Total protein content for all the samples was calculated by using Bradford reagent from Bio-Rad Laboratories. All samples were normalized by dividing cytokine concentration with total quantity of protein. Betamethasone was used as positive control in this study.

The conditions of data set [3]: rats, oral and intravenous administration; cited from earlier work.
Data set [4] relates to TNF-α. Nature of the data set: LPS induced septic shock model, serum TNF-α ELISA. Conditions: 20 mg/kg (PO). Format: in vivo, BALB/C mice. How it is done:
The effect of rohitukine, hydroalcoholic extract (A002-A) and rohitukine-enriched fraction (A002-AEF) on TNF-α secretion was studied in LPS induced septic shock model in BALB/C mice. BALB/C female mice (20-25 g) were randomly divided into 6 groups (n=4 per group). Animals were treated according to the following pattern: group 1 (vehicle), group 2 (LPS, 20 mg/kg), group 3 (Rohitukine, 20 mg/kg), group 4 (A002-A, 200 mg/kg), group 5 (A002-AEF, 200 mg/kg), group 6 (dexamethasone, 10 mg/kg). The hydroalcholic extract (A002-A) and its enriched fraction A002-AEF was dissolved in water and dexamethasone was dissolved in PBS. PBS/water was used as a vehicle control. Compounds and vehicle were administered perorally for 1 h prior to treatment with LPS. LPS was injected through intraperitoneal route for 5 h. Blood was collected and serum was extracted for performing ELISA analysis of TNF-α cytokine. The ELISA was performed according to manufacturer's instructions (BD Bioscience). The absorbance was measured at 450 nm and each estimated cytokine value was normalized with total serum protein.

Data set [5] relates to TNF-α. Kind of data set: Collagen induced arthritis model, serum TNF-α. Format: in vivo, DBA/1J mice. How it is done:
as §1

A further data set in a line: in vivo. The note with it: male, SD, rat. How it is done:
The pharmacokinetic study was performed in male SD rats. First the pharmacokinetic study of “rohitukine” was performed by both intravenous as well as per oral (PO) routes in order to understand the oral exposure and oral bioavailability of rohitukine. Rohitukine was administered at 5 mg/kg by IV route and at 50 mg/kg by oral route. For comparative oral pharmacokinetic study of plain extract (A002-AEF) and SR formulation “SR-A002-AEF” formulation (filled in 9e1 capsules), the dose equivalent to 6.77 mg/kg dose of rohitukine was administered in SD rats in both these groups. Blood samples were collected (n=3/time point) at 0.083 (IV only), 0.25, 0.5, 1, 2, 4, 8 and 24 h, post-dose. At each time point about 200 μL of blood was collected by jugular vein into a labeled microfuge tube containing 200 mM K2EDTA solution (20 μL per mL of blood) and equivalent volume of heparinized saline was replaced following sample collection. The blood samples were processed to obtain the plasma samples within 30 min of scheduled sampling time. All plasma samples were stored below −60° C. until bioanalysis. The plasma samples were analyzed for rohitukine content using a fit-for purpose LC-MS/MS method with a lower limit of quantification (LLOQ) of 9.95 ng/mL. The pharmacokinetic parameters of rohitukine were calculated using the non-compartmental analysis tool of validated Phoenix® WinNonlin® software (version 6.3).

Each structure is given as a SMILES string.

With `Cc1cc(=O)c2c(O)cc(O)c([C@H]3CCN(C)C[C@H]3O)c2o1` [rohitukine], the “stability of rohitukine (% hydrolyzed by HPLC)” value in data set [1] was “stable at all the conditions tested”. In addition, the “serum IL-6 cytokine levels” value in the data set with IL-6 is given as “decreased levels of serum IL-6 cytokine”. The “inhibition of LPS-stimulated TNF-alpha levels” value in data set [2] is listed as “significant inhibition of TNF-alpha”. Further, in data set [3], the biological half-life is on record as 1-2 h. Further, in the data set with TNF-α [4], the “serum TNF-alpha levels” value is given as “not able to significantly inhibit the serum TNF-alpha levels”. Also, the “serum TNF-alpha” value in the data set on TNF-α [5] (5-15 mg/kg (PO) doses) is “could not inhibit serum TNF-alpha”. Moreover, in the data set on TNF-α [5] (5-30 mg/kg doses), the “serum TNF-alpha cytokine” value was “no significant inhibition of TNF-alpha cytokine”. The bioavailability in the data set “in vivo” was more than 100%. Besides, in the data set “in vivo” (iv, 5 mg/kg), the AUC(0-t) was found to be 1130 ng·h/mL, the clearance is 72.7 mL/min/kg, the “clearance relative to normal hepatic blood flow (55 mL/min/kg)” value is recorded as approximately 1.32 fold and the half-life is 22.9 min. In addition, the “volume of distribution relative to normal total body water (0.7 L/kg)” value in the data set “in vivo” (iv, 5 mg/kg) is reported as approximately 2.41 fold. Besides, in the data set “in vivo” (po, 50 mg/kg), the AUC(0-t) amounted to 26400 ng·h/mL, the highest level (Cmax) was 14900 ng/mL, the half-life is 63.6 min and the “median time to reach the maximum plasma concentration” value came to 0.25 h.

Turning to `Cc1cc(=O)c2c(O[C@@H]3OC(CO)[C@@H](O)[C@H](O)C3O)cc(O)cc2o1` (stereo partly drawn) [schumaniofioside A], the “inhibition of LPS-stimulated TNF-alpha levels” value in data set [2] is reported as “significant inhibition of TNF-alpha”.
